Data taken from ChEMBL document CHEMBL3991601, “The target landscape of clinical kinase drugs” (Science, 2017).
The source made the active and inactive calls. Cut-off read from the data, not from the text of the source, for most assays here: actives have a measured Kd and inactives only a lower limit.

Target: T1, EKC/KEOPS complex subunit TP53RK (Homo sapiens, UniProt Q96S44)
T1 sequence (Q96S44 whole entry): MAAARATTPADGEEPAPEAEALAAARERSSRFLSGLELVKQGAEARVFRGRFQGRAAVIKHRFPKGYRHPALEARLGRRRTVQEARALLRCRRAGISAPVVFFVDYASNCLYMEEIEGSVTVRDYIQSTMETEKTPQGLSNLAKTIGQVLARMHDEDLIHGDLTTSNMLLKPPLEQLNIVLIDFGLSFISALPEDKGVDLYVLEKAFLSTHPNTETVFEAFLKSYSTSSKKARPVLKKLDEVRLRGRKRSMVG
Note: in the data inactive means no Kd found up to 30 µM.

SMILES | Kd
COc1cc(OC)c(/C=C/S(=O)(=O)Cc2ccc(OC)c(NCC(=O)O)c2)c(OC)c1 [RIGOSERTIB] | > 30 µM (inactive)
CNC(=O)CN1CCC(Oc2cc3c(Nc4cccc(Cl)c4F)ncnc3cc2OC)CC1 [SAPITINIB] | > 30 µM (inactive)
C[C@@H](c1ccc2nccn2c1)n1nnc2ncc(-c3cnn(C)c3)nc21 [SAVOLITINIB] | > 30 µM (inactive)
CN1CCC(CNc2ccc3ncc(-c4cccc(OC(F)(F)F)c4)n3n2)CC1 [SGI-1776] | > 30 µM (inactive)
C[C@@H]1CN(Cc2ccc(F)cc2)[C@@H](C)CN1C(=O)c1cc2c(C(=O)C(=O)N(C)C)cn(C)c2cc1Cl [TALMAPIMOD] | > 30 µM (inactive)

Target: GTP-binding protein 4 (Homo sapiens, UniProt Q9BZE4)

SMILES | Kd
COc1cc(OC)c(/C=C/S(=O)(=O)Cc2ccc(OC)c(NCC(=O)O)c2)c(OC)c1 [RIGOSERTIB] | > 30 µM (inactive)
CNC(=O)CN1CCC(Oc2cc3c(Nc4cccc(Cl)c4F)ncnc3cc2OC)CC1 [SAPITINIB] | > 30 µM (inactive)
C[C@@H](c1ccc2nccn2c1)n1nnc2ncc(-c3cnn(C)c3)nc21 [SAVOLITINIB] | > 30 µM (inactive)
CN1CCC(CNc2ccc3ncc(-c4cccc(OC(F)(F)F)c4)n3n2)CC1 [SGI-1776] | > 30 µM (inactive)
C[C@@H]1CN(Cc2ccc(F)cc2)[C@@H](C)CN1C(=O)c1cc2c(C(=O)C(=O)N(C)C)cn(C)c2cc1Cl [TALMAPIMOD] | > 30 µM (inactive)

Target: Ephrin type-A receptor 5 (Homo sapiens, UniProt P54756)
Sequence (P54756 whole entry): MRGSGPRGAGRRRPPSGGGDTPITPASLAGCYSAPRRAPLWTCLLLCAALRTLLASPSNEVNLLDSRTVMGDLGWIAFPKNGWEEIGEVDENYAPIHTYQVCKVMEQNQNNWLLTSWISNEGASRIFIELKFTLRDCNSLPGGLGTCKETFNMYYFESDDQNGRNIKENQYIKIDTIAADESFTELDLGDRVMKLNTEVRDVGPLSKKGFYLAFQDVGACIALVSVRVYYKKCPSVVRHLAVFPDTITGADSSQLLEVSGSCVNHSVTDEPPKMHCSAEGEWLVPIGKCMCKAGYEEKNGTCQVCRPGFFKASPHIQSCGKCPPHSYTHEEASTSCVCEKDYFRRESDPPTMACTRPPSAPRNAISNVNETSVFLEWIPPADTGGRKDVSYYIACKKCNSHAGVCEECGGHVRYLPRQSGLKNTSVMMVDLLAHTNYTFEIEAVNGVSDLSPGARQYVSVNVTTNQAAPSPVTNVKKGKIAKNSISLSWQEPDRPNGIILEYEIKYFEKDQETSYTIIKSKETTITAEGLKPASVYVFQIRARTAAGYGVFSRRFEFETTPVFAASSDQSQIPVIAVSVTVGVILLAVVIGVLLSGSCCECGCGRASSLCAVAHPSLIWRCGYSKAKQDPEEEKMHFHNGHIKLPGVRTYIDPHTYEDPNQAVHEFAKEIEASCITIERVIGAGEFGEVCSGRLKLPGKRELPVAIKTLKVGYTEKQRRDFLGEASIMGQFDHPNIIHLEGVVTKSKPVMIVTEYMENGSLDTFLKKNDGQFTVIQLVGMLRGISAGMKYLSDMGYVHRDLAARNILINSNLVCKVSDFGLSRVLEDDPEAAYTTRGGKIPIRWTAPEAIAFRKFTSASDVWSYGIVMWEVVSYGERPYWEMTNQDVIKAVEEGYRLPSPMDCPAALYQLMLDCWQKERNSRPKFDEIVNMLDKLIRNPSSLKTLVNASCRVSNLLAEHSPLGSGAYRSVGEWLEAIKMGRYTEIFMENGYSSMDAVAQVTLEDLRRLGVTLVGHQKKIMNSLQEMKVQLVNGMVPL

SMILES | Kd
COc1cc(OC)c(/C=C/S(=O)(=O)Cc2ccc(OC)c(NCC(=O)O)c2)c(OC)c1 [RIGOSERTIB] | > 30 µM (inactive)
CNC(=O)CN1CCC(Oc2cc3c(Nc4cccc(Cl)c4F)ncnc3cc2OC)CC1 [SAPITINIB] | 0.835 µM (active)
C[C@@H](c1ccc2nccn2c1)n1nnc2ncc(-c3cnn(C)c3)nc21 [SAVOLITINIB] | > 30 µM (inactive)
CN1CCC(CNc2ccc3ncc(-c4cccc(OC(F)(F)F)c4)n3n2)CC1 [SGI-1776] | > 30 µM (inactive)
C[C@@H]1CN(Cc2ccc(F)cc2)[C@@H](C)CN1C(=O)c1cc2c(C(=O)C(=O)N(C)C)cn(C)c2cc1Cl [TALMAPIMOD] | > 30 µM (inactive)

Target: T2, Dual specificity mitogen-activated protein kinase kinase 5 (Homo sapiens, UniProt Q13163)
T2 sequence (Q13163 whole entry): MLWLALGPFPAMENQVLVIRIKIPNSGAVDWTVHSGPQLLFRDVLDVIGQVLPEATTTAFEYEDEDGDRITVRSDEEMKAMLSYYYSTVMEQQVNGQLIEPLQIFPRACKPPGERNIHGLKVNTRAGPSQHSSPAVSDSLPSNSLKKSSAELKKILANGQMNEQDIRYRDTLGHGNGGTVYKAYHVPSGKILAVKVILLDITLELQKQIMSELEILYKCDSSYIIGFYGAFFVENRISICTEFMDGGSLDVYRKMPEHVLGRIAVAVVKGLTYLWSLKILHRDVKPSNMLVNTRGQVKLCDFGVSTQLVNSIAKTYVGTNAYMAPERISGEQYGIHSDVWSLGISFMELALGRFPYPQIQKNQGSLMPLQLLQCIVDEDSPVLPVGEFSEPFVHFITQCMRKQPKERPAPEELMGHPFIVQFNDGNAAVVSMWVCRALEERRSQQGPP

SMILES | Kd
COc1cc(OC)c(/C=C/S(=O)(=O)Cc2ccc(OC)c(NCC(=O)O)c2)c(OC)c1 [RIGOSERTIB] | > 30 µM (inactive)
CNC(=O)CN1CCC(Oc2cc3c(Nc4cccc(Cl)c4F)ncnc3cc2OC)CC1 [SAPITINIB] | > 30 µM (inactive)
C[C@@H](c1ccc2nccn2c1)n1nnc2ncc(-c3cnn(C)c3)nc21 [SAVOLITINIB] | > 30 µM (inactive)
CN1CCC(CNc2ccc3ncc(-c4cccc(OC(F)(F)F)c4)n3n2)CC1 [SGI-1776] | > 30 µM (inactive)
C[C@@H]1CN(Cc2ccc(F)cc2)[C@@H](C)CN1C(=O)c1cc2c(C(=O)C(=O)N(C)C)cn(C)c2cc1Cl [TALMAPIMOD] | > 30 µM (inactive)

Target: T3, Serine/threonine-protein kinase 3 (Homo sapiens, UniProt Q13188)
T3 sequence (Q13188 whole entry): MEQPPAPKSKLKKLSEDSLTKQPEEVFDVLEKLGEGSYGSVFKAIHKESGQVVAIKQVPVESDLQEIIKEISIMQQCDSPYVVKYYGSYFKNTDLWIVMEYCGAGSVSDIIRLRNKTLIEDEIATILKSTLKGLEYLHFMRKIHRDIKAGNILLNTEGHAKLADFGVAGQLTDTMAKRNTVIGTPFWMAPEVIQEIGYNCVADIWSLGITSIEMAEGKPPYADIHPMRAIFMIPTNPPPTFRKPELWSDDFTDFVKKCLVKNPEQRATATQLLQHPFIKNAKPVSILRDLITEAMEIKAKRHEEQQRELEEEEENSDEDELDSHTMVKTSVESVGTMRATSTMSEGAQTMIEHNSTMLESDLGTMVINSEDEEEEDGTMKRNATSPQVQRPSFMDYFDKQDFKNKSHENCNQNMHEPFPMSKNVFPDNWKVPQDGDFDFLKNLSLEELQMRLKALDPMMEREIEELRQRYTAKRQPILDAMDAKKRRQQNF

SMILES | Kd
COc1cc(OC)c(/C=C/S(=O)(=O)Cc2ccc(OC)c(NCC(=O)O)c2)c(OC)c1 [RIGOSERTIB] | > 30 µM (inactive)
CNC(=O)CN1CCC(Oc2cc3c(Nc4cccc(Cl)c4F)ncnc3cc2OC)CC1 [SAPITINIB] | > 30 µM (inactive)
C[C@@H](c1ccc2nccn2c1)n1nnc2ncc(-c3cnn(C)c3)nc21 [SAVOLITINIB] | > 30 µM (inactive)
CN1CCC(CNc2ccc3ncc(-c4cccc(OC(F)(F)F)c4)n3n2)CC1 [SGI-1776] | > 30 µM (inactive)
C[C@@H]1CN(Cc2ccc(F)cc2)[C@@H](C)CN1C(=O)c1cc2c(C(=O)C(=O)N(C)C)cn(C)c2cc1Cl [TALMAPIMOD] | > 30 µM (inactive)

Target: T4, Serine/threonine-protein kinase ULK3 (Homo sapiens, UniProt Q6PHR2)
T4 sequence (Q6PHR2 whole entry): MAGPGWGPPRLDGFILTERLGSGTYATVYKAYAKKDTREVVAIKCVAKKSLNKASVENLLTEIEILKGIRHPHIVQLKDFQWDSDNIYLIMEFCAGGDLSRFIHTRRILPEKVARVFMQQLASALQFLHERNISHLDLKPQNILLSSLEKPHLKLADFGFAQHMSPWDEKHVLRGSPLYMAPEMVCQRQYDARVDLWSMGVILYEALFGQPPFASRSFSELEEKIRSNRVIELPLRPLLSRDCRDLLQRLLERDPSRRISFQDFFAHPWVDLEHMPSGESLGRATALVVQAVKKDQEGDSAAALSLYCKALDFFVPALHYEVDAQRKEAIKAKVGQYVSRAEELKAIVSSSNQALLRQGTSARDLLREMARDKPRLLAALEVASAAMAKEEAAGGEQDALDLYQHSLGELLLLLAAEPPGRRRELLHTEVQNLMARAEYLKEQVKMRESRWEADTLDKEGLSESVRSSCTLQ

SMILES | Kd
COc1cc(OC)c(/C=C/S(=O)(=O)Cc2ccc(OC)c(NCC(=O)O)c2)c(OC)c1 [RIGOSERTIB] | > 30 µM (inactive)
CNC(=O)CN1CCC(Oc2cc3c(Nc4cccc(Cl)c4F)ncnc3cc2OC)CC1 [SAPITINIB] | > 30 µM (inactive)
C[C@@H](c1ccc2nccn2c1)n1nnc2ncc(-c3cnn(C)c3)nc21 [SAVOLITINIB] | > 30 µM (inactive)
CN1CCC(CNc2ccc3ncc(-c4cccc(OC(F)(F)F)c4)n3n2)CC1 [SGI-1776] | > 30 µM (inactive)
C[C@@H]1CN(Cc2ccc(F)cc2)[C@@H](C)CN1C(=O)c1cc2c(C(=O)C(=O)N(C)C)cn(C)c2cc1Cl [TALMAPIMOD] | > 30 µM (inactive)

Target: T5, Serine/threonine-protein kinase Nek3 (Homo sapiens, UniProt P51956)
T5 sequence (P51956 whole entry): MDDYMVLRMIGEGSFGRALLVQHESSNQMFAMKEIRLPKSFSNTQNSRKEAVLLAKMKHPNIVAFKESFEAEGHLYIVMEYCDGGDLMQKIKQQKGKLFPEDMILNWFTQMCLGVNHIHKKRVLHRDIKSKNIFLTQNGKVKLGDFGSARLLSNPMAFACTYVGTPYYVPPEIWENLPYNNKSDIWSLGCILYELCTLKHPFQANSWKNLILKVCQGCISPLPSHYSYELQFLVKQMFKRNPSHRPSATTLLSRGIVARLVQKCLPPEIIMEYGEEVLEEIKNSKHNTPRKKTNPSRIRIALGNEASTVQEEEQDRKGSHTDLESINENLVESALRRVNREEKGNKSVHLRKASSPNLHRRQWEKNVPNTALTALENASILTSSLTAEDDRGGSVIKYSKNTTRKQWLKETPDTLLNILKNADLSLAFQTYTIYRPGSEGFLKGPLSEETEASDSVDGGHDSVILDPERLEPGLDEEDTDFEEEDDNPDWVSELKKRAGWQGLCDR

SMILES | Kd
COc1cc(OC)c(/C=C/S(=O)(=O)Cc2ccc(OC)c(NCC(=O)O)c2)c(OC)c1 [RIGOSERTIB] | > 30 µM (inactive)
CNC(=O)CN1CCC(Oc2cc3c(Nc4cccc(Cl)c4F)ncnc3cc2OC)CC1 [SAPITINIB] | > 30 µM (inactive)
C[C@@H](c1ccc2nccn2c1)n1nnc2ncc(-c3cnn(C)c3)nc21 [SAVOLITINIB] | > 30 µM (inactive)
CN1CCC(CNc2ccc3ncc(-c4cccc(OC(F)(F)F)c4)n3n2)CC1 [SGI-1776] | > 30 µM (inactive)
C[C@@H]1CN(Cc2ccc(F)cc2)[C@@H](C)CN1C(=O)c1cc2c(C(=O)C(=O)N(C)C)cn(C)c2cc1Cl [TALMAPIMOD] | > 30 µM (inactive)

Target: Tyrosine-protein kinase ABL2 (Homo sapiens, UniProt P42684)
Sequence (P42684 whole entry): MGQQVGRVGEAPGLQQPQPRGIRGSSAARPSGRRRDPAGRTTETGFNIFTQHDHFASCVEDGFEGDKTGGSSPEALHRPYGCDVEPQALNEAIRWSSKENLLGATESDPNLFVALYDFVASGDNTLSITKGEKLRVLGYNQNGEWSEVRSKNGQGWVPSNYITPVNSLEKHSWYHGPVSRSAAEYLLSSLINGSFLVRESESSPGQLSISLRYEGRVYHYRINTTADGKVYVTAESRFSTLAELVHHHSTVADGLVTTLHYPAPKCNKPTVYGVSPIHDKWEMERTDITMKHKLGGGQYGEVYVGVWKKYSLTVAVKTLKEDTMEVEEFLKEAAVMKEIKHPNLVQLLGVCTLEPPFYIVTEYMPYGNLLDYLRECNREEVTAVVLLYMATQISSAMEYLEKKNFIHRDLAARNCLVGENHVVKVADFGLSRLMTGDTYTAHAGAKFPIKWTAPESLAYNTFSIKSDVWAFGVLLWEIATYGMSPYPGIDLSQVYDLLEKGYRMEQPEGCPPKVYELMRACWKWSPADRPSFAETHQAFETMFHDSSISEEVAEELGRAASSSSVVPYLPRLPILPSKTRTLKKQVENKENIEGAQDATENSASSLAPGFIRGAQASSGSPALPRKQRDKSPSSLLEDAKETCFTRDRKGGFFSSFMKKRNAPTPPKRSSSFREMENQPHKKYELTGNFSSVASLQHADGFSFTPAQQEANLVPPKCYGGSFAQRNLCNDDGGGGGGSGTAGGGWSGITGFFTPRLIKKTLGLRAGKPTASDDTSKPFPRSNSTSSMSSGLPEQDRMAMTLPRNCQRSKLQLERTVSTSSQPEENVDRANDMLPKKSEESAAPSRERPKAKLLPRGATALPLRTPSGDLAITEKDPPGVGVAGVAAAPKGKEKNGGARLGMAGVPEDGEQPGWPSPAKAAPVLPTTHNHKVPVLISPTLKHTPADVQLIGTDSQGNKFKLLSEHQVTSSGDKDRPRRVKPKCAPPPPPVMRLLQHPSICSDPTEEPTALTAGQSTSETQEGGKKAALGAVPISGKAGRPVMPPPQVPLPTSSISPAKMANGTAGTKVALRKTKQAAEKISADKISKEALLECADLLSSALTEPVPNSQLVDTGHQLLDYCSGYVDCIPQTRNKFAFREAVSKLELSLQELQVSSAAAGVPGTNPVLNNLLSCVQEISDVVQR

SMILES | Kd
COc1cc(OC)c(/C=C/S(=O)(=O)Cc2ccc(OC)c(NCC(=O)O)c2)c(OC)c1 [RIGOSERTIB] | > 30 µM (inactive)
CNC(=O)CN1CCC(Oc2cc3c(Nc4cccc(Cl)c4F)ncnc3cc2OC)CC1 [SAPITINIB] | > 30 µM (inactive)
C[C@@H](c1ccc2nccn2c1)n1nnc2ncc(-c3cnn(C)c3)nc21 [SAVOLITINIB] | > 30 µM (inactive)
CN1CCC(CNc2ccc3ncc(-c4cccc(OC(F)(F)F)c4)n3n2)CC1 [SGI-1776] | > 30 µM (inactive)
C[C@@H]1CN(Cc2ccc(F)cc2)[C@@H](C)CN1C(=O)c1cc2c(C(=O)C(=O)N(C)C)cn(C)c2cc1Cl [TALMAPIMOD] | > 30 µM (inactive)
